# Patent US20140342379A1, “Means and Methods for Assessing Gonadal Toxicity” (BASF SE, priority 2011, published 2014)
# Where “and” joins values, the source holds several entries; their conditions need not be identical. Equal values may be shown once. Marks after values point to notes of the source that are not given here.
# System: male rats
# Experiment: 28-day repeated dose study, plasma metabolite profiling (GC-MS, LC-MS), male rats
# Format: in vivo, rat
# Text: Drinking water was also offered ad libitum.
smiles,measurement,setting,value
"CC(C=O)Cc1ccc(C(C)(C)C)cc1 (centres unmarked) [Lysmeral, 2-Methyl-3(4-tert.-butylphenyl)-propanal]","3-Hydroxybutyrate, plasma, treatment ratio versus control",day 7,0.24* and 0.21*
same,"3-O-Methylsphingosine (d18:1), plasma, treatment ratio versus control",day 7,0.22
same,"5-O-Methylsphingosine (d18:1), plasma, treatment ratio versus control",day 7,0.19
same,"5-Oxoproline, plasma, treatment ratio versus control",day 7,0.65*
same,"Arginine, plasma, treatment ratio versus control",day 7,1.37*
same,"Campesterol, plasma, treatment ratio versus control",day 7,0.24*
same,"Ceramide (d18:1,C24:0), plasma, treatment ratio versus control",day 7,0.59*
same,"Ceramide (d18:1,C24:1), plasma, treatment ratio versus control",day 7,0.47*
same,"Cholesterol, plasma, treatment ratio versus control",day 7,0.3
same,"Choline plasmalogen No 03, plasma, treatment ratio versus control",day 7,0.51*
same,"Coenzyme Q9, plasma, treatment ratio versus control",day 7,0.21*
same,"Coenzyme Q10, plasma, treatment ratio versus control",day 7,0.33*
same,"Glutamate, plasma, treatment ratio versus control",day 7,0.72
same,"Glutamine, plasma, treatment ratio versus control",day 7,0.65*
same,"Histidine, plasma, treatment ratio versus control",day 7,1.21*
same,"Homovanillic acid (HVA), plasma, treatment ratio versus control",day 7,0.21*
same,"Isopalmitic acid (C16:0), plasma, treatment ratio versus control",day 7,0.46*
same,"Lignoceric acid (C24:0), plasma, treatment ratio versus control",day 7,0.36
same,"Linoleic acid (C18:cis[9,12]2), plasma, treatment ratio versus control",day 7,0.44*
same,"Lysine, plasma, treatment ratio versus control",day 7,6.14*
same,"Myristic acid (C14:0), plasma, treatment ratio versus control",day 7,0.54
same,"Oleic acid (C18:cis[9]1), plasma, treatment ratio versus control",day 7,0.87
same,"Palmitic acid (C16:0), plasma, treatment ratio versus control",day 7,0.42*
same,"Palmitoleic acid (C16:cis[9]1), plasma, treatment ratio versus control",day 7,0.66
same,"Phosphatidylcholine (C16:0,C18:2), plasma, treatment ratio versus control",day 7,0.89*
same,"Phosphatidylcholine (C18:1,C18:2), plasma, treatment ratio versus control",day 7,0.74*
same,"Serine, plasma, treatment ratio versus control",day 7,1.36*
same,"Sphingomyelin (d18:1,C16:0), plasma, treatment ratio versus control",day 7,0.84*
same,"Sphingomyelin (d18:1,C24:0), plasma, treatment ratio versus control",day 7,0.52*
same,"Sphingomyelin (d18:2,C16:0), plasma, treatment ratio versus control",day 7,0.58*
same,"Stearic acid (C18:0), plasma, treatment ratio versus control",day 7,0.34*
same,"TAG (C16:0,C16:1), plasma, treatment ratio versus control",day 7,0.47
same,"Threonine, plasma, treatment ratio versus control",day 7,1.46*
same,"alpha-Tocopherol, plasma, treatment ratio versus control",day 7,0.52*
same,"beta-Sitosterol, plasma, treatment ratio versus control",day 7,0.43*
same,"erythro-Sphingosine, plasma, treatment ratio versus control",day 7,0.21
same,"threo-Sphingosine, plasma, treatment ratio versus control",day 7,0.25
same,"Lysophosphatidylcholine (C20:4), plasma, treatment ratio versus control","day 7, first listing in Table 3",0.87*
same,"Lysophosphatidylcholine (C20:4), plasma, treatment ratio versus control","day 7, second listing in Table 3",0.67*
same,"3-Hydroxybutyrate, plasma, treatment ratio versus control",day 14,0.29* and 0.2*
same,"3-O-Methylsphingosine (d18:1), plasma, treatment ratio versus control",day 14,0.45*
same,"5-O-Methylsphingosine (d18:1), plasma, treatment ratio versus control",day 14,0.48*
same,"Arginine, plasma, treatment ratio versus control",day 14,1.59*
same,"Campesterol, plasma, treatment ratio versus control",day 14,0.43*
same,"Ceramide (d18:1,C24:0), plasma, treatment ratio versus control",day 14,0.59*
same,"Ceramide (d18:1,C24:1), plasma, treatment ratio versus control",day 14,0.38*
same,"Cholesterol, plasma, treatment ratio versus control",day 14,0.47*
same,"Choline plasmalogen No 03, plasma, treatment ratio versus control",day 14,0.66*
same,"Coenzyme Q9, plasma, treatment ratio versus control",day 14,0.27*
same,"Coenzyme Q10, plasma, treatment ratio versus control",day 14,0.24*
same,"Dodecanol, plasma, treatment ratio versus control",day 14,0.75*
same,"Glutamate, plasma, treatment ratio versus control",day 14,0.93
same,"Glutamine, plasma, treatment ratio versus control",day 14,0.8
same,"Histidine, plasma, treatment ratio versus control",day 14,1.37*
same,"Homovanillic acid (HVA), plasma, treatment ratio versus control",day 14,0.47*
same,"Isopalmitic acid (C16:0), plasma, treatment ratio versus control",day 14,0.49*
same,"Lignoceric acid (C24:0), plasma, treatment ratio versus control",day 14,0.52*
same,"Linoleic acid (C18:cis[9,12]2), plasma, treatment ratio versus control",day 14,0.57*
same,"Lysine, plasma, treatment ratio versus control",day 14,6.55*
same,"Myristic acid (C14:0), plasma, treatment ratio versus control",day 14,0.59*
same,"Oleic acid (C18:cis[9]1), plasma, treatment ratio versus control",day 14,1.01
same,"Palmitic acid (C16:0), plasma, treatment ratio versus control",day 14,0.56*
same,"Palmitoleic acid (C16:cis[9]1), plasma, treatment ratio versus control",day 14,0.55*
same,"Phosphatidylcholine (C16:0,C18:2), plasma, treatment ratio versus control",day 14,0.93*
same,"Phosphatidylcholine (C18:1,C18:2), plasma, treatment ratio versus control",day 14,0.79*
same,"Serine, plasma, treatment ratio versus control",day 14,1.54*
same,"Sphingomyelin (d18:1,C16:0), plasma, treatment ratio versus control",day 14,0.88*
same,"Sphingomyelin (d18:1,C24:0), plasma, treatment ratio versus control",day 14,0.62*
same,"Sphingomyelin (d18:2,C16:0), plasma, treatment ratio versus control",day 14,0.53*
same,"Stearic acid (C18:0), plasma, treatment ratio versus control",day 14,0.51*
same,"TAG (C16:0,C16:1), plasma, treatment ratio versus control",day 14,0.67*
same,"Threonine, plasma, treatment ratio versus control",day 14,1.74*
same,"alpha-Tocopherol, plasma, treatment ratio versus control",day 14,0.56*
same,"beta-Sitosterol, plasma, treatment ratio versus control",day 14,0.57*
same,"erythro-Sphingosine, plasma, treatment ratio versus control",day 14,0.51*
same,"threo-Sphingosine, plasma, treatment ratio versus control",day 14,0.5*
same,"Lysophosphatidylcholine (C20:4), plasma, treatment ratio versus control","day 14, first listing in Table 3",0.95*
same,"Lysophosphatidylcholine (C20:4), plasma, treatment ratio versus control","day 14, second listing in Table 3",0.61*
same,"3-Hydroxybutyrate, plasma, treatment ratio versus control",day 28,0.52* and 0.49*
same,"3-O-Methylsphingosine (d18:1), plasma, treatment ratio versus control",day 28,0.48*
same,"5-O-Methylsphingosine (d18:1), plasma, treatment ratio versus control",day 28,0.48*
same,"5-Oxoproline, plasma, treatment ratio versus control",day 28,0.74*
same,"Arginine, plasma, treatment ratio versus control",day 28,1.76*
same,"Campesterol, plasma, treatment ratio versus control",day 28,0.35*
same,"Ceramide (d18:1,C24:0), plasma, treatment ratio versus control",day 28,0.44*
same,"Ceramide (d18:1,C24:1), plasma, treatment ratio versus control",day 28,0.38*
same,"Cholesterol, plasma, treatment ratio versus control",day 28,0.49*
same,"Choline plasmalogen No 03, plasma, treatment ratio versus control",day 28,0.6*
same,"Coenzyme Q9, plasma, treatment ratio versus control",day 28,0.31*
same,"Coenzyme Q10, plasma, treatment ratio versus control",day 28,0.37*
same,"Glutamate, plasma, treatment ratio versus control",day 28,0.82*
same,"Glutamine, plasma, treatment ratio versus control",day 28,0.81*
same,"Histidine, plasma, treatment ratio versus control",day 28,1.56*
same,"Homovanillic acid (HVA), plasma, treatment ratio versus control",day 28,0.26*
same,"Isopalmitic acid (C16:0), plasma, treatment ratio versus control",day 28,0.34*
same,"Lignoceric acid (C24:0), plasma, treatment ratio versus control",day 28,0.6*
same,"Linoleic acid (C18:cis[9,12]2), plasma, treatment ratio versus control",day 28,0.38*
same,"Lysine, plasma, treatment ratio versus control",day 28,8.13*
same,"Myristic acid (C14:0), plasma, treatment ratio versus control",day 28,0.53*
same,"Oleic acid (C18:cis[9]1), plasma, treatment ratio versus control",day 28,0.81*
same,"Palmitic acid (C16:0), plasma, treatment ratio versus control",day 28,0.48*
same,"Palmitoleic acid (C16:cis[9]1), plasma, treatment ratio versus control",day 28,0.37*
same,"Phosphatidylcholine (C16:0,C18:2), plasma, treatment ratio versus control",day 28,0.92*
same,"Phosphatidylcholine (C18:1,C18:2), plasma, treatment ratio versus control",day 28,0.83*
same,"Serine, plasma, treatment ratio versus control",day 28,1.7*
same,"Sphingomyelin (d18:1,C16:0), plasma, treatment ratio versus control",day 28,0.79*
same,"Sphingomyelin (d18:1,C24:0), plasma, treatment ratio versus control",day 28,0.64*
same,"Sphingomyelin (d18:2,C16:0), plasma, treatment ratio versus control",day 28,0.55*
same,"Stearic acid (C18:0), plasma, treatment ratio versus control",day 28,0.55*
same,"TAG (C16:0,C16:1), plasma, treatment ratio versus control",day 28,0.66*
same,"Threonine, plasma, treatment ratio versus control",day 28,2.15*
same,"beta-Sitosterol, plasma, treatment ratio versus control",day 28,0.55*
same,"erythro-Sphingosine, plasma, treatment ratio versus control",day 28,0.51*
same,"threo-Sphingosine, plasma, treatment ratio versus control",day 28,0.51*
same,"Lysophosphatidylcholine (C20:4), plasma, treatment ratio versus control","day 28, first listing in Table 3",0.94*
same,"Lysophosphatidylcholine (C20:4), plasma, treatment ratio versus control","day 28, second listing in Table 3",0.5*
